According to ChEMBL document CHEMBL1122473, “Synthesis and antibacterial activity of some 3-[(alkylthio)methyl]quinoxaline 1-oxide derivatives” (1983):
In brackets after ≈: the same amount, converted by molar mass.

Tests used:
Format in all cases: functional
Streptococcus pyogenes = test: In vitro antibacterial activity under anaerobic conditions against […] pyogenes strain 2C203
[1] = test system: Brachyspira hyodysenteriae; test: In vitro antibacterial activity under anaerobic conditions against Treponema hyodysenteriae strain 94A002
Pasteurella multocida = test: In vitro antibacterial activity under anaerobic conditions against Pasteurella multocida strain 59A004
Escherichia coli = test: In vitro antibacterial activity under anaerobic conditions against Escherichia coli strain 51A266
Salmonella enterica = test: In vitro antibacterial activity under anaerobic conditions against Salmonella choleraesuis strain 58B242

SMILES	MIC (Streptococcus pyogenes)	MIC [1]	MIC (Pasteurella multocida)	MIC (Escherichia coli)	MIC (Salmonella enterica)
CCS(=O)(=O)Cc1nc2ccccc2[n+]([O-])c1C(=O)NC	12.5 µg/mL (≈ 40.4 µM)	6.25 µg/mL (≈ 20.2 µM)	6.25 µg/mL (≈ 20.2 µM)	12.5 µg/mL (≈ 40.4 µM)	25 µg/mL (≈ 80.8 µM)
CS(=O)(=O)Cc1nc2ccccc2[n+]([O-])c1C(N)=O	0.78 µg/mL (≈ 2.77 µM)	6.25 µg/mL (≈ 22.2 µM)	1.56 µg/mL (≈ 5.55 µM)	1.56 µg/mL (≈ 5.55 µM)	3.12 µg/mL (≈ 11.1 µM)
CC(=O)c1c(C[S+](C)[O-])nc2ccccc2[n+]1[O-] (configuration not stated)	6.25 µg/mL (≈ 23.6 µM)	6.25 µg/mL (≈ 23.6 µM)	3.12 µg/mL (≈ 11.8 µM)	25 µg/mL (≈ 94.6 µM)	25 µg/mL (≈ 94.6 µM)
CC(=O)c1c(CS(=O)(=O)CCO)nc2ccccc2[n+]1[O-]	6.25 µg/mL (≈ 20.1 µM)	3.12 µg/mL (≈ 10.1 µM)	1.56 µg/mL (≈ 5.03 µM)	25 µg/mL (≈ 80.6 µM)	50 µg/mL (≈ 161 µM)
COC(=O)c1c(CS(C)(=O)=O)nc2ccccc2[n+]1[O-]	3.12 µg/mL (≈ 10.5 µM)	1.56 µg/mL (≈ 5.26 µM)	0.78 µg/mL (≈ 2.63 µM)	3.12 µg/mL (≈ 10.5 µM)	6.25 µg/mL (≈ 21.1 µM)
COC(=O)c1c(CS(=O)(=O)CCO)nc2ccccc2[n+]1[O-]	0.78 µg/mL (≈ 2.39 µM)	1.56 µg/mL (≈ 4.78 µM)	1.56 µg/mL (≈ 4.78 µM)	6.25 µg/mL (≈ 19.2 µM)	25 µg/mL (≈ 76.6 µM)
CS(=O)(=O)Cc1nc2ccccc2[n+]([O-])c1C#N	25 µg/mL (≈ 95 µM)	–	200 µg/mL (≈ 760 µM)	> 200 µg/mL	> 200 µg/mL
CCS(=O)(=O)Cc1nc2ccccc2[n+]([O-])c1C(C)=O	1.56 µg/mL (≈ 5.3 µM)	0.78 µg/mL (≈ 2.65 µM)	6.25 µg/mL (≈ 21.2 µM)	25 µg/mL (≈ 84.9 µM)	50 µg/mL (≈ 170 µM)
CC(=O)c1c(CS(C)(=O)=O)nc2ccccc2[n+]1[O-]	1.56 µg/mL (≈ 5.57 µM)	0.19 µg/mL (≈ 0.678 µM)	0.78 µg/mL (≈ 2.78 µM)	12.5 µg/mL (≈ 44.6 µM)	12.5 µg/mL (≈ 44.6 µM)
CC(=O)c1c(C[S+]([O-])CCO)nc2ccccc2[n+]1[O-] (configuration not stated)	25 µg/mL (≈ 84.9 µM)	–	3.12 µg/mL (≈ 10.6 µM)	25 µg/mL (≈ 84.9 µM)	6.25 µg/mL (≈ 21.2 µM)
CS(=O)(=O)Cc1nc2ccccc2[n+]([O-])c1S(C)(=O)=O	6.25 µg/mL (≈ 19.8 µM)	> 25 µg/mL	3.12 µg/mL (≈ 9.86 µM)	25 µg/mL (≈ 79 µM)	25 µg/mL (≈ 79 µM)
CNC(=O)c1c(CS(=O)(=O)CCO)nc2ccccc2[n+]1[O-]	6.25 µg/mL (≈ 19.2 µM)	12.5 µg/mL (≈ 38.4 µM)	3.12 µg/mL (≈ 9.59 µM)	6.25 µg/mL (≈ 19.2 µM)	25 µg/mL (≈ 76.8 µM)
CCCS(=O)(=O)Cc1nc2ccccc2[n+]([O-])c1C(C)=O	6.25 µg/mL (≈ 20.3 µM)	–	3.12 µg/mL (≈ 10.1 µM)	100 µg/mL (≈ 324 µM)	200 µg/mL (≈ 649 µM)
CNC(=O)c1c(CS(C)(=O)=O)nc2ccccc2[n+]1[O-]	6.25 µg/mL (≈ 21.2 µM)	3.12 µg/mL (≈ 10.6 µM)	0.78 µg/mL (≈ 2.64 µM)	3.12 µg/mL (≈ 10.6 µM)	6.25 µg/mL (≈ 21.2 µM)
COC(=O)N/N=C/c1c[n+]([O-])c2ccccc2[n+]1[O-] [CARBADOX]	0.19 µg/mL (≈ 0.725 µM)	0.19 µg/mL (≈ 0.725 µM)	0.78 µg/mL (≈ 2.97 µM)	0.39 µg/mL (≈ 1.49 µM)	0.19 µg/mL (≈ 0.725 µM)
